Earlier results as cited in the CATMoS acute toxicity set (Mansouri et al. 2021).
Where “and” joins values, the source holds several entries; their conditions need not be identical. Equal values may be shown once.

experiment: rat acute oral toxicity; settings: in vivo

| Structure (SMILES) | LD50 |
| --- | --- |
| C=CC(=O)OCCOC(=O)c1ccc(C(=O)O)cc1C(=O)O | 3190 mg/kg |
| CN(C)N=Nc1cccnc1 | 160 mg/kg |
| CCC(C)c1cnc2nc(N)nc(N)c2c1C (centres undefined) | 100 mg/kg |
| CN(C)S(=O)(=O)CCNC(=O)N(CCCl)N=O | 39 mg/kg |
| CC(C)OCC1CO1 (centres undefined) | 4200 mg/kg |
| CSc1ccc(O)cc1C | 3400 mg/kg |
| CC(C)CCCC(C)(C)O | 6800 mg/kg |
| CCP(=S)(CC)Oc1cc(Cl)c(Cl)cc1Cl | 100 mg/kg |
| OC[C@H]1O[C@@H]2O[C@H]3[C@H](O)[C@@H](O)[C@@H](O[C@H]4[C@H](O)[C@@H](O)[C@@H](O[C@H]5[C@H](O)[C@@H](O)[C@@H](O[C@H]6[C@H](O)[C@@H](O)[C@@H](O[C@H]7[C@H](O)[C@@H](O)[C@@H](O[C@H]8[C@H](O)[C@@H](O)[C@@H](O[C@H]1[C@H](O)[C@H]2O)O[C@@H]8CO)O[C@@H]7CO)O[C@@H]6CO)O[C@@H]5CO)O[C@@H]4CO)O[C@@H]3CO | 18800 mg/kg |
| COc1cccc(C(=O)CCN[C@@H](C)[C@H](O)c2ccccc2)c1 | 500 mg/kg |
| CSC(C)(C)C=NOC(=O)N(C)SN(C)Cc1ccccc1 | 9.4 mg/kg |
| FC(F)(F)c1nc2c(Cl)c(Cl)c(Cl)cc2[nH]1 | 1.52 mg/kg |
| CC(=O)N[C@@H](Cc1c[nH]c2ccccc12)C(=O)O | 15000 mg/kg |
| CSP(SC)SC | 105 mg/kg |
| Cc1c2ccccc2c(C)c2c1ccc1ccccc12 | 327 mg/kg |
| CSC#N | 60 mg/kg |
| Nc1ccc2c(O)cc(S(=O)(=O)O)cc2c1 | 11500 mg/kg |
| C=CC(=O)NCOCCCC | 1030 mg/kg |
| Cc1csc2c(Cl)cccc12 | 300 mg/kg |
| CCCCNCC1COc2cccc(OCC)c2O1 (centres undefined) | 348 mg/kg |
| Cc1cccc(NC(=O)c2ccccc2C(=O)O)c1 | 5230 mg/kg |
| CC1=CCC(=O)O1 | 3900 mg/kg |
| O=S(=O)(Cl)CCCl | 240 mg/kg |
| O=c1cc[nH]c(=O)o1 | 850 mg/kg |

| Structure (SMILES) | LD50 |
| --- | --- |
| CCOC(=O)C1=C(O)c2ccccc2S(=O)(=O)N1C | 4800 mg/kg |
| CC1(C)[C@H](C=C(Cl)Cl)[C@H]1C(=O)OCc1c(F)c(F)c(F)c(F)c1F | 85 mg/kg |
| CC(C)(C)N1CCC(c2ccccc2)(c2ccccc2)CC1 | 165 mg/kg |
| OC(c1ccccc1)(c1ccccc1)C1CCNCC1 | 984 mg/kg |
| CCN1CCCC1CNC(=O)c1cc(S(=O)(=O)CC)ccc1OC (centres undefined) | 2100 mg/kg |
| CN(C)C=CC#N | 946 mg/kg |
| CC(=O)NC(N)=S | 50 mg/kg |
| OC(CNCCNCC(O)COc1ccccc1)COc1ccccc1 (centres undefined) | 2920 mg/kg |
| C[N+]1(CCCl)CCCO1 (centres undefined) | 3 mg/kg |
| O=C(O)CNCC(=O)O | 8070 mg/kg |
| CCCCCC(=O)NO | 3200 mg/kg |
| O=C(O)c1cc(C(=O)O)cc(S(=O)(=O)O)c1 | 2600 mg/kg and 6450 mg/kg |
| CCCN=C(C(OC)c1ccccc1)N1CCCCCC1 (centres undefined) | 55 mg/kg |
| CC(CCc1ccccc1)NCC(O)c1ccc(O)c(C(N)=O)c1 (centres undefined) | 2110 mg/kg |
| CN(C)S(=O)(=O)c1cc(Cl)c(N)cc1Cl | 4090 mg/kg |
| CC(C)=CC1C(C(=O)OC2CC(=O)C(C3C=CCC3)=C2C)C1(C)C (centres undefined) | 1410 mg/kg |
| COC(=O)C1=C(C)NC(C)=C(C(=O)OCC(C)(C)CN(C)Cc2ccccc2)C1c1cc([N+](=O)[O-])ccc1F (centres undefined) | 30.5 mg/kg |
| COP(=O)(OC)OC(=CCl)c1cc(Cl)c(Cl)cc1Cl | 4000 mg/kg |
| C=CCOC(Cn1ccnc1)c1ccc(Cl)cc1Cl (centres undefined) | 227 mg/kg |
| CNCCCN | 951 mg/kg |
| CCCC=C(CC)[N+](=O)[O-] | 620 mg/kg |
| C=CC(=O)NCC(OC)OC | 1200 mg/kg |
| O=c1oc2ccccc2c(O)c1C(CC(O)c1ccc(-c2ccc(Br)cc2)cc1)c1ccccc1 (centres undefined) | 0.49 mg/kg |
| COc1ccc(CC(=O)O)cc1 | 1550 mg/kg |

| Structure (SMILES) | LD50 |
| --- | --- |
| CCOP(=S)(OCC)O/N=C(\C#N)c1ccccc1 | 300 mg/kg |
| CN(C)C(=O)CCNc1ccc(Br)cc1 | 1810 mg/kg |
| C[C@H]1[C@H](c2ccccc2)OCCN1C | 455 mg/kg |
| CC1=C(C(C)C)CC=CC1 | 4270 mg/kg |
| O=[N+]([O-])c1ccc(OP(=O)(OCCCCl)OCCCCl)cc1 | 33 mg/kg |
| CNC(=O)Oc1ccccc1OC(CCl)OC (centres undefined) | 35.4 mg/kg |
| CCCCCCCCOC(=O)C1=C(C)NC(C)=C(C(=O)NC2CC2)C1c1ccccc1[N+](=O)[O-] (centres undefined) | 50 mg/kg |
| CCOC(C1=NCCCN1)c1cccc(F)c1 (centres undefined) | 1000 mg/kg |
| COP(=S)(OC)SCc1nc(=O)o[nH]1 | 10 mg/kg |
| COc1c(Cl)ccc2[nH]c(C(F)(F)F)nc12 | 3.15 mg/kg |
| CCCCCCCCCCCC[N+](C)(C)Cc1ccc(CC)cc1 | 700 mg/kg |
| c1ccc(CNc2ncnc3c2NCN3)cc1 | 2100 mg/kg |
| C=CCOCC1CO1 (centres undefined) | 1600 mg/kg |
| COc1cc([C@@H]2c3cc4c(cc3C(O[C@@H]3O[C@@H]5CO[C@@H](C)O[C@H]5[C@H](O)[C@H]3O)C3COC(=O)[C@@H]32)OCO4)cc(OC)c1O (some centres undefined) | 1780 mg/kg |
| CN1C(C(=O)Nc2ccccn2)=C(OC(=O)C23CC4CC(CC(C4)C2)C3)c2sc(Cl)cc2S1(=O)=O | 100 mg/kg |
| NC1CCc2ccccc2C1 (centres undefined) | 100 mg/kg |
| CC(C)(C)OOC(=O)C(C)(C)C | 4300 mg/kg |
| Clc1cc(Cl)cc(Cl)c1 | 800 mg/kg |
| O=c1nc[nH]c2c1ncn2[C@@H]1O[C@H](COP(=O)(O)OP(=O)(O)O)[C@@H](O)[C@H]1O | 3790 mg/kg |
| Nc1ccc(S(=O)(=O)O)cc1 | 5380 mg/kg |
| C=CCN1CCc2nc(N)sc2CC1 | 403 mg/kg |
| CCCCCCCCCCCCOC(C[n+]1ccccc1)c1ccc(C(C)C)cc1 (centres undefined) | 250 mg/kg |
| CCCC(=O)C(CC)Cc1ccccc1 (centres undefined) | 4400 mg/kg |
| O=S(=O)(Cl)c1ccccc1Cl | 7500 mg/kg |

| Structure (SMILES) | LD50 |
| --- | --- |
| OC(CCl)CNc1ccccc1NCC(O)CCl (centres undefined) | 900 mg/kg |
| CN=C(O)O/N=C1/SCOC1C (centres undefined) | 12 mg/kg |
| O=c1ccn(C2OC(COP(=O)(O)O)C(O)C2O)c(=O)[nH]1 (centres undefined) | 12000 mg/kg |
| C#CC(=O)O | 100 mg/kg |
| O=S1OC[C@@H]2[C@H](CO1)[C@]1(Cl)C(Cl)=C(Cl)[C@@]2(Cl)C1(Cl)Cl (some centres undefined) | 76 mg/kg |
| O=C1CCc2cc(C(=O)CCCN3CCN(c4ccccc4)CC3)ccc2N1 | 500 mg/kg |
| O=C(O)C(F)(F)C(F)(F)C(F)(F)C(F)(F)C(F)(F)C(F)(F)C(F)(F)C(F)(F)C(F)(F)F | 57 mg/kg |
| O=C=Nc1cccc(Cl)c1 | 4200 mg/kg |
| CCCCCCCCCCCCN(CCC(=O)O)CCC(=O)O | 31300 mg/kg |
| O=C(O)c1ccccc1C(=O)O | 7900 mg/kg |
| FC(Cl)C(F)(Cl)Cl (centres undefined) | 7800 mg/kg |
| C=COCCSCC | 4920 mg/kg |
| Cc1ccc(C=O)o1 | 2200 mg/kg |
| Nc1cc(Cl)c([N+](=O)[O-])cc1Cl | 2820 mg/kg |
| Cl[C@H]1[C@H](Cl)[C@@H](Cl)[C@H](Cl)[C@@H](Cl)[C@@H]1Cl (racemic) | 6000 mg/kg |
| Clc1cccc(N2CCNCC2)c1 | 142 mg/kg |
| N#Cc1ccc([N+](=O)[O-])cc1C#N | 850 mg/kg |
| ClC1=C(Cl)C2(Cl)C(C(Cl)Cl)CC1(Cl)C2(Cl)Cl (centres undefined) | 1600 mg/kg |
| NC(CO)(CO)CO | 5900 mg/kg |
| CCCCB(CCCC)CCCC | 1120 mg/kg |
| O=S(=O)(O)c1ccccc1 | 2050 mg/kg |
| CCc1c2c(nc3ccc(OC(=O)N4CCC(N5CCCCC5)CC4)cc13)-c1cc3c(c(=O)n1C2)COC(=O)[C@]3(O)CC | 867 mg/kg |
| CCCCCCCCCc1ccc(C)cc1O | 4000 mg/kg |
| COc1ccc2c(c1)OC(C)(C)C(c1ccccc1)=C2c1ccc(OCCN)cc1 | 1500 mg/kg |

| Structure (SMILES) | LD50 |
| --- | --- |
| CCCCOC(=O)COc1ccc(Cl)cc1C | 914 mg/kg |
| C=C(C#N)OC(C)=O | 100 mg/kg |
| CCOP(=S)(OCC)Oc1cnn(C)c(=O)c1OC | 2.5 mg/kg |
| c1ccc2c(c1)OCO2 | 580 mg/kg |
| O=CNC(N1CCOCC1)C(Cl)(Cl)Cl (centres undefined) | 990 mg/kg |
| O=C(OCCN1CCCCC1)C(O)(c1ccccc1)c1ccccc1 | 1210 mg/kg |
| CSC(C)=NOC(=O)N(C)SN(C)C(=O)Oc1ccc(C(C)(C)c2ccc(OC(=O)N(C)SN(C)C(=O)ON=C(C)SC)cc2)cc1 | 508 mg/kg |
| CCCCCCCCCCCCSC#N | 1250 mg/kg |
| CCOC(=O)c1ccc(OC)cc1 | 2040 mg/kg |
| CCCCCCCc1ccc(C)cc1O | 3320 mg/kg |
| O=C(O)Cn1c(=O)sc2cccc(Cl)c21 | 3000 mg/kg |
| CCSCCSP(=S)(OC)OC | 40 mg/kg |
| CCOP(=S)(OCC)SC(C#N)c1ccccc1 (centres undefined) | 100 mg/kg |
| ClC1=C(Cl)[C@]2(Cl)[C@H]3[C@H]([C@H]4C=C[C@H]3C4)[C@@]1(Cl)C2(Cl)Cl | 7 mg/kg |
| CC(=O)Nc1ccc(C(=O)CCl)cc1 | 2150 mg/kg |
| CC[C@H]1CN2CCc3cc(OC)c(OC)cc3[C@@H]2C[C@@H]1C[C@H]1NCCc2cc(OC)c(OC)cc21 | 0.012 mg/kg |
| O=C1NCCN1c1ncc([N+](=O)[O-])s1 | 900 mg/kg |
| Brc1ccccc1 | 2380 mg/kg |
| Oc1ccc(O)c2[nH]c(C(F)(F)F)nc12 | 29 mg/kg |
| OCCI | 50 mg/kg |
| CCCCCCOC(=O)c1ccccc1C(=O)OCCCCCC | 29600 mg/kg |
| OCCOCCOCCOCCOc1ccccc1 | 1260 mg/kg |
| Cc1ccccc1C1OCC(O)CO1 (mixture of isomers) | 3400 mg/kg |
| C[N+]1(CC[N+]2(C)CC3C4C=CC(CC4)C3C2)CCCC1 (centres undefined) | 1810 mg/kg |

| Structure (SMILES) | LD50 |
| --- | --- |
| OCC1CCCCO1 (centres undefined) | 3730 mg/kg |
| CCCCOCCC(=O)O | 5190 mg/kg |
| N#CC(Cl)(Cl)CCl | 200 mg/kg and 250 mg/kg |
| OC1CCCc2ccccc21 (centres undefined) | 1620 mg/kg |
| O=S1(=O)CCCO1 | 100 mg/kg |
| ClC1=C(Cl)C2(Cl)C3C(Cl)C(Cl)CC3C1(Cl)C2(Cl)Cl (centres undefined) | 283 mg/kg |
| CCCCOCC(O)COc1ccccc1 (centres undefined) | 2370 mg/kg |
| Oc1ccc(Nc2ccc3ccccc3c2)cc1 | 5200 mg/kg |
| CC(C[N+](C)(C)C)OC(N)=O (centres undefined) | 1500 mg/kg |
| O=C1N(Cc2ccccc2)C2C[S+]3CCCC3C2N1Cc1ccccc1 (centres undefined) | 2490 mg/kg |
| C=CCCC(=O)Cl | 470 mg/kg |
| CC(=O)OCC(C)c1ccccc1 (centres undefined) | 4300 mg/kg |
| O=C(C(F)(F)F)C(F)(F)F | 190 mg/kg and 191 mg/kg |
| CNC(=O)Oc1ccc(CC#N)cc1 | 511 mg/kg |
| CC(CC1c2ccccc2CCc2ccccc21)CN(C)C (centres undefined) | 700 mg/kg |
| CC=C1CC(C)C(C)(O)C(=O)OCC2=CCN3CCC(OC1=O)C23 (centres undefined) | 85 mg/kg |
| C[N+](C)(C)C | 77 mg/kg and 50 mg/kg |
| CCCCNP(=S)(OCC)Sc1ccccc1 (centres undefined) | 300 mg/kg |
| O=C1OCC(CCl)O1 (centres undefined) | 80 mg/kg |
| O=C1CCCC1 | 2690 mg/kg |
| CC(C)(S)C(N)C(=O)O (racemic) | 365 mg/kg |
| COC(=O)C1=C(C#N)NC(C)=C(C(=O)OC(C)C)C1c1cccc([N+](=O)[O-])c1 (centres undefined) | 1560 mg/kg |
| CN1CCN(CCCN2c3ccccc3Sc3ccccc32)CC1 | 1380 mg/kg and 500 mg/kg |
| Cc1[nH]c2ccccc2c1C=CC1=[N+](C)c2ccccc2C1(C)C | 2450 mg/kg |
